{"source": "PubChem BioAssay AID1259409", "about": "(Chemical Carcinogenesis Research Information System (CCRIS), 2018)", "origin": "cited, not measured here", "test_system": "rodent chemically induced tumor inhibition, incidence and multiplicity", "assay": "CCRIS tumor inhibitor studies", "details": "Route [Inhibitor]: ORAL", "data": [{"compound": "O=[Se](O)O", "values": [{"measurement": "tumour outcome (control, treated, inhibition, significance)", "setting": "Carcinogen: DIETHYLNITROSAMINE, 55-18-5, Dose [Inhibitor]: 0, 10 MG/L IN DRINKING WATER FOR DURATION OF STUDY BEGINNING 4 D POST CARCINOGEN TREATMENT (STUDY DURATION: 6 MO), Species: RAT, Strain/Sex: BD6/FEMALE, Target Tissue: Type of Lesion: ESOPHAGUS: TUMOR, Dose [Carcinogen]: 80 MG/KG BW 1/WK FOR 9 WK, Promoter: NONE USED", "result": "29%, 18%, 38%, not significant"}, {"measurement": "tumour outcome (control, treated, inhibition, significance)", "setting": "Carcinogen: DIETHYLNITROSAMINE, 55-18-5, Dose [Inhibitor]: 0, 10 MG/L IN DRINKING WATER FOR DURATION OF STUDY BEGINNING 7 D PRIOR TO CARCINOGEN TREATMENT (STUDY DURATION: 6 MO), Species: RAT, Strain/Sex: BD6/FEMALE, Target Tissue: Type of Lesion: ESOPHAGUS: TUMOR, Dose [Carcinogen]: 80 MG/KG BW 1/WK FOR 7 WK, Promoter: NONE USED", "result": "25%, 14%, 44%, not significant"}, {"measurement": "tumour outcome (control, treated, inhibition, significance)", "setting": "Carcinogen: DIETHYLNITROSAMINE, 55-18-5, Dose [Inhibitor]: 0, 10 MG/L IN DRINKING WATER FOR DURATION OF STUDY BEGINNING 7 D PRIOR TO CARCINOGEN TREATMENT (STUDY DURATION: 6 MO), Species: RAT, Strain/Sex: BD6/FEMALE, Target Tissue: Type of Lesion: LIVER: TUMOR, Dose [Carcinogen]: 80 MG/KG BW 1/WK FOR 7 WK, Promoter: NONE USED", "result": "64%, 31%, 52%, p<0.05"}, {"measurement": "tumour outcome (control, treated, inhibition, significance)", "setting": "Carcinogen: DIETHYLNITROSAMINE, 55-18-5, Dose [Inhibitor]: 0, 10 MG/L IN DRINKING WATER FOR DURATION OF STUDY BEGINNING 7 D PRIOR TO FIRST CARCINOGEN DOSE (STUDY DURATION: 6 MO), Species: RAT, Strain/Sex: BD6/FEMALE, Target Tissue: Type of Lesion: ESOPHAGUS: TUMOR, Dose [Carcinogen]: 80 MG/KG BW 1/WK FOR 8 WK, Promoter: NONE USED", "result": "31%, 39%, -26%, not significant"}, {"measurement": "tumour outcome (control, treated, inhibition, significance)", "setting": "Carcinogen: DIETHYLNITROSAMINE, 55-18-5, Dose [Inhibitor]: 0, 10 MG/L IN DRINKING WATER FOR DURATION OF STUDY BEGINNING 7 D PRIOR TO FIRST CARCINOGEN DOSE (STUDY DURATION: 6 MO), Species: RAT, Strain/Sex: BD6/FEMALE, Target Tissue: Type of Lesion: ESOPHAGUS: TUMOR, Dose [Carcinogen]: 100 MG/L IN DRINKING WATER FOR 3.5 MO, Promoter: NONE USED", "result": "37%, 25%, 32%, not significant"}, {"measurement": "tumour outcome (control, treated, inhibition, significance)", "setting": "Carcinogen: DIETHYLNITROSAMINE, 55-18-5, Dose [Inhibitor]: 0, 10 MG/L IN DRINKING WATER FOR DURATION OF STUDY BEGINNING 7 D PRIOR TO FIRST CARCINOGEN DOSE (STUDY DURATION: 6 MO), Species: RAT, Strain/Sex: BD6/FEMALE, Target Tissue: Type of Lesion: LIVER: TUMOR, Dose [Carcinogen]: 80 MG/KG BW 1/WK FOR 8 WK, Promoter: NONE USED", "result": "94%, 69%, 27%, not significant"}, {"measurement": "tumour outcome (control, treated, inhibition, significance)", "setting": "Carcinogen: DIETHYLNITROSAMINE, 55-18-5, Dose [Inhibitor]: 0, 10 MG/L IN DRINKING WATER FOR DURATION OF STUDY BEGINNING 7 D PRIOR TO FIRST CARCINOGEN DOSE (STUDY DURATION: 6 MO), Species: RAT, Strain/Sex: BD6/FEMALE, Target Tissue: Type of Lesion: LIVER: TUMOR, Dose [Carcinogen]: 100 MG/L IN DRINKING WATER FOR 3.5 MO, Promoter: NONE USED", "result": "95%, 94%, 1%, not significant"}, {"measurement": "tumour outcome (control, treated, inhibition, significance)", "setting": "Carcinogen: DIETHYNITROSAMINE, 55-18-5, Dose [Inhibitor]: 0, 1 MG/L IN DRINKING WATER FOR DURATION OF STUDY BEGINNING 7 D PRIOR TO FIRST CARCINOGEN DOSE (STUDY DURATION: 6 MO), Species: RAT, Strain/Sex: BD6/FEMALE, Target Tissue: Type of Lesion: LIVER: TUMOR, Dose [Carcinogen]: 80 MG/KG BW 1/WK FOR 8 WK, Promoter: NONE USED", "result": "85%, 75%, 12%, not significant"}, {"measurement": "tumour outcome (control, treated, inhibition, significance)", "setting": "Carcinogen: ETHYLNITROSOUREA, 759-73-9, Dose [Inhibitor]: 0, 4 MG/L TAP DRINKING WATER FOR LIFE (STUDY DURATION: 310 D), Species: RAT, Strain/Sex: ALBINO/MALE,FEMALE, Target Tissue: Type of Lesion: KIDNEY: MESENCHYMAL TUMOR OR ADENOCARCINOMA, Dose [Carcinogen]: 75 MG/KG IN SALINE BY INTRAVENOUS INJECTION ONCE 21 D AFTER CONCEPTION", "result": "33/89 (37%), 20/55 (36%), 3%, not calculated"}, {"measurement": "tumour outcome (control, treated, inhibition, significance)", "setting": "Carcinogen: ETHYLNITROSOUREA, 759-73-9, Dose [Inhibitor]: 0, 4 MG/L TAP DRINKING WATER FOR LIFE (STUDY DURATION: 310 D), Species: RAT, Strain/Sex: ALBINO/MALE,FEMALE, Target Tissue: Type of Lesion: SPINAL CORD: TUMOR, Dose [Carcinogen]: 75 MG/KG IN SALINE BY INTRAVENOUS INJECTION ONCE 21 D AFTER CONCEPTION", "result": "55/89 (62%), 32/55 (58%), 6%, not calculated"}, {"measurement": "tumour outcome (control, treated, inhibition, significance)", "setting": "Carcinogen: ETHYLNITROSOUREA, 759-73-9, Dose [Inhibitor]: 0, 4 MG/L TAP DRINKING WATER FOR LIFE (STUDY DURATION: 310 D), Species: RAT, Strain/Sex: ALBINO/MALE/FEMALE, Target Tissue: Type of Lesion: BRAIN: GLIOMA OR ASTROCYTOMA, Dose [Carcinogen]: 75 MG/KG IN SALINE BY INTRAVENOUS INJECTION ONCE 21 D AFTER CONCEPTION", "result": "54/89 (61%), 33/55 (60%), 2%, not calculated"}, {"measurement": "tumour outcome (control, treated, inhibition, significance)", "setting": "Carcinogen: ETHYLNITROSOUREA, 759-73-9, Dose [Inhibitor]: 0, 4 MG/L TAP DRINKING WATER FOR LIFE (STUDY DURATION: 319 D), Species: RAT, Strain/Sex: ALBINO/MALE,FEMALE, Target Tissue: Type of Lesion: NERVOUS SYSTEM: SCHWANNOMA, Dose [Carcinogen]: 75 MG/KG IN SALINE BY INTRAVENOUS INJECTION ONCE 21 D AFTER CONCEPTION", "result": "37/89 (42%), 21/55 (38%), 10%, not calculated"}, {"measurement": "tumour outcome (control, treated, inhibition, significance)", "setting": "Carcinogen: METHYLAZOXYMETHANOL, 590-96-5, Dose [Inhibitor]: 4 PPM IN DRINKING WATER DAILY FOR 20 WK STARTING SIMULTANEOUSLY WITH CARCINOGEN TREATMENT AND CONTINUING THROUGH END OF, Species: RAT, Strain/Sex: SPRAGUE-DAWLEY/MALE, Target Tissue: Type of Lesion: COLON: ADENOCARCINOMA, Dose [Carcinogen]: 20 MG/KG BW 1/WK FOR 20 WK, Promoter: NONE USED", "result": "14/14 (100%), 14/15 (93%), 7%, not significant"}, {"measurement": "tumour outcome (control, treated, inhibition, significance)", "setting": "Carcinogen: METHYLCHOLANTHRENE, 56-49-5, Dose [Inhibitor]: 0, 1 PPM IN DRINKING WATER FOR 13 WK BEGINNING 1 WK PRIOR TO CARCINOGEN TREATMENT (STUDY DURATION: 13 WK), Species: MOUSE, Strain/Sex: SWISS/FEMALE, Target Tissue: Type of Lesion: UTERUS: SQUAMOUS CELL TUMOR, Dose [Carcinogen]: 600 UG IN BEESWAX IMPREGNATED COTTON THREAD INSERTED INTO UTERINE CERVIX CANAL, Promoter: NONE USED", "result": "18/25 (72%), 13/35 (37%), 49%, p<0.05"}, {"measurement": "tumour outcome (control, treated, inhibition, significance)", "setting": "Carcinogen: N'-NITROSOBIS(2-OXOPROPYL)AMINE, 60599-38-4, Dose [Inhibitor]: 0.1, 4 PPM (43.5 UG/D) IN DRINKING WATER BEGINNING 8 WK PRIOR TO FIRST CARCINOGEN DOSE AND CONTINUING FOR DURATION OF ST, Species: HAMSTER, Strain/Sex: SYRIAN/FEMALE, Target Tissue: Type of Lesion: PANCREAS: TUMOR, Dose [Carcinogen]: 10 MG/KG IN 0.9% SALINE 1/WK FOR 10 WK, Promoter: NONE USED", "result": "88%, 88%, 0%"}]}]}
